According to BindingDB's records for doi:10.1016/j.bmcl.2007.12.029 (Merck Research Laboratories, 2008):

Assay: Antagonist activity at CCR2 receptor in human monocytes assessed as inhibition of MCP1-mediated chemotaxis

| IC50 | SMILES |
| --- | --- |
| 2 nM | CC(C)[C@]1(C(=O)NCc2cc(C(F)(F)F)cc(C(F)(F)F)c2)CC[C@@H](N2CCC(c3cncnc3)CC2)C1 [N-(3,5-bis(trifluoromethyl)benzyl)-1-isopropyl-3-(4-(pyrimidin-5-yl)piperidin-1-yl)cyclopentanecarboxamide] |
| 2 nM | CC(C)(O)[C@]1(C(=O)NCc2cc(C(F)(F)F)cc(C(F)(F)F)c2)CC[C@@H](N2CCC(c3cncnc3)CC2)C1 [(1S,3R)-N-(3,5-bis(trifluoromethyl)benzyl)-1-(2-hydroxypropan-2-yl)-3-(4-(pyrimidin-5-yl)piperidin-1-yl)cyclopentanecarboxamide] |
